The target of one experiment is T1, human P2Y12 receptor (Homo sapiens, UniProt Q9H244).
T1 construct: expressed in transfected cells; host or cells: Chinese Hamster Ovary (CHO) cells
T1 sequence (Q9H244 whole entry): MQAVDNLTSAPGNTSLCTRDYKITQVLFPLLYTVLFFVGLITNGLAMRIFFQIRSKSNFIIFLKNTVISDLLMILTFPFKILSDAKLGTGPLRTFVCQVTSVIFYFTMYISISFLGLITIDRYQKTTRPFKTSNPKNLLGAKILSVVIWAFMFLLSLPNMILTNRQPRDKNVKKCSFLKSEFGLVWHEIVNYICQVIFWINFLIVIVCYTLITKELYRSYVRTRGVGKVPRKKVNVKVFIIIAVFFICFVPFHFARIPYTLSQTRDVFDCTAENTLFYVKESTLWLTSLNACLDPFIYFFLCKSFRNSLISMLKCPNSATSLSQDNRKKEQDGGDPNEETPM
Briefly: P2Y12 receptor binding assay (displacement of tritium-labeled 2-methyl-S-ADP on CHO cells). The note with it: CHO cells with recombinant expression of the human P2Y12 receptor, 2 hours at RT, Example compounds table. As to the method:
P2Y12 Receptor Binding Assay
Chinese Hamster Ovary (CHO) cells with recombinant expression of the human P2Y12 receptor were cultured in 24 well cell-culture plates. Cells were washed three times with binding buffer (50 mM Tris pH 7.4, 100 mM NaCl, 1 mM EDTA, 0.5% BSA). The cells were then incubated with 0.5 ml per well binding buffer containing tritium-labeled 2-methyl-thio-adenosine 5′-diphosphate (2-methyl-S-ADP) (between 100'000 and 300'000 dpm per well) and various concentrations of test compounds. After incubation at RT for 2 hours, cells were washed three times with binding buffer. Then, cells were solubilized by addition of 0.5 ml solubilization buffer (SDS, NaOH, EDTA). The content of each well was then transferred into beta-counter vials and 2.0 ml of Ultima Gold Scintillation liquid was added.
`CCCCOC(=O)N1CCN(C(=O)[C@H](CCC(=O)O)NC(=O)c2cc([C@@H]3C[C@H]3COC)nc(-c3ccccc3)n2)CC1` (mixture of isomers) [Example 2, 4-((S)-4-carboxy-2-{[6-(trans-2-methoxymethyl-cyclopropyl)-2-phenyl-pyrimidine-4-carbonyl]-amino}-butyryl)-piperazine-1-carboxylic acid butyl ester]: the IC50 (in general, the concentration that inhibits the measured activity by half) came to 3 nM. As for `CCCCOC(=O)N1CCN(C(=O)[C@H](CCC(=O)O)NC(=O)c2cc([C@@H]3C[C@@H]3COC)nc(-c3ccccc3)n2)CC1` (mixture of isomers) [Example 6, 4-((S)-4-carboxy-2-{[6-(cis-2-methoxymethyl-cyclopropyl)-2-phenyl-pyrimidine-4-carbonyl]-amino}-butyryl)-piperazine-1-carboxylic acid butyl ester], the IC50 is 9 nM. `CCCCOC(=O)N1CCN(C(=O)[C@H](CCC(=O)O)NC(=O)c2cc(C3CC3)nc(-c3ccccc3)n2)CC1` [Example 1, 4-{(S)-4-carboxy-2-[(6-cyclopropyl-2-phenyl-pyrimidine-4-carbonyl)-amino]-butyryl}-piperazine-1-carboxylic acid butyl ester]: the IC50 stood at 6 nM.

On to `CCCCOC(=O)N1CCN(C(=O)[C@H](CCC(=O)O)NC(=O)c2cc([C@H]3C[C@@H]3COC)nc(-c3ccccc3)n2)CC1` [Example 3, 4-((S)-4-carboxy-2-{[6-((1S,2S)-2-methoxymethyl-cyclopropyl)-2-phenyl-pyrimidine-4-carbonyl]-amino}-butyryl)-piperazine-1-carboxylic acid butyl ester], for which the half-inhibitory concentration (IC50) is 5 nM. As to `CCCCOC(=O)N1CCN(C(=O)[C@H](CCC(=O)O)NC(=O)c2cc([C@H]3C[C@@H]3CO)nc(-c3ccccc3)n2)CC1` [Example 4, 4-((S)-4-carboxy-2-{[6-((1S,2S)-2-hydroxymethyl-cyclopropyl)-2-phenyl-pyrimidine-4-carbonyl]-amino}-butyryl)-piperazine-1-carboxylic acid butyl ester], the IC50 came to 4 nM. Same read-out and setting: to `CCCCOC(=O)N1CCN(C(=O)[C@H](CCC(=O)O)NC(=O)c2cc([C@H]3C[C@@H]3COC)nc(-c3ccc(F)cc3)n2)CC1` [Example 5, 4-((S)-4-carboxy-2-{[2-(4-fluoro-phenyl)-6-((1S,2S)-2-methoxymethyl-cyclopropyl)-pyrimidine-4-carbonyl]-amino}-butyryl)-piperazine-1-carboxylic acid butyl ester] belongs 2 nM.

The same experiment, now with this note: CHO cells with recombinant expression of the human P2Y12 receptor, 2 hours at RT, comparison with reference compounds of WO 2006/114774.
`CCOC(=O)N1CCN(C(=O)[C@H](CCC(=O)O)NC(=O)c2cc(C3CC3)nc(-c3ccccc3)n2)CC1` [Example 90 of WO 2006/114774, reference compound]: the concentration for half-maximal inhibition (IC50) was determined as 43 nM. On the same count and under the same terms, as for `CCOC(=O)N1CCN(C(=O)[C@H](CCC(=O)O)NC(=O)c2cc(C3CC3CO)nc(-c3ccccc3)n2)CC1` (some centres unmarked) [Example 500 of WO 2006/114774, reference compound], the figure is 23 nM.

These data come from US8466156B2, “2-phenyl-4-cyclopropyl-pyrimidine derivatives” (Actelion Pharmaceuticals Ltd., priority 2008, dated 2013).
